From PMC9918186, “Interaction of Positively Charged Oligopeptides with Blood Plasma Proteins” (International Journal of Molecular Sciences, 2023) come the findings set out here.

In the assay the test system is γ-globulin fraction (GGF). The experiment in a line: Fluorescence quenching of GGF by peptides L1–3. The assay is classed as binding. Conditions: for Stern–Volmer constant Ksv / binding constant Kb / logKb: GGF 1.0 µM, phosphate buffer; for Stern–Volmer constant Ksv: peptide 0.25–2.0 µM, λex 280 nm; for logKb: double log regression; for quenching rate constant kq: from Ksv with τ0 10^−8 s assumed. On the procedure: Fluorescence spectroscopy was carried out to characterize the mechanism of the interaction between three plasma proteins, BSA, AAG, and GGF, with the studied peptides. The fluorescence spectra of protein were collected during titration of L1–L3. The excitation wavelength was set at λ = 280 nm (both Trp and Tyr residues were excited).
To confirm this, the fluorescence data were further analyzed by the Stern–Volmer Equation (1) after correction due to the infer filter effect (2):(1) F0/F=1+kqτ[Q]=1+KSV (2) Fcorr=Fobs10^(Aex+Aem)/2 where F0 and F are the fluorescence intensities (after correction) of the protein and protein in the presence of L1–3, respectively, kq is the quenching rate constant, τ0 the average lifetime, [Q] is the L1–3 concentration, Ksv is the Stern–Volmer constant, and Fcorr, and Fobs are the corrected and observed fluorescence intensities, respectively. Aex and Aem are the absorbance values at excitation and emission wavelengths, respectively. A linear regression fit was used to calculate the value of the Stern–Volmer constant (Ksv). Then, assuming the average lifetime of the fluorophore in the excited state for a biomolecule as 10^−8 s, the quenching rate constant (kq) was computed. For dynamic quenching, the maximum scatters collision quenching rate constant for different quenchers with the biopolymers was reported to be 2 × 10^10 dm^3mol^−1s^−1 [55, 56]. […] Collisional quenching occurs when the excited-state fluorophore is deactivated by contact with some other molecule in solution (by collisions). […] This is a dynamic mechanism of quenching. The quenching constant characterizes the quenching mechanism. The maximum value for collisional quenching is 2 × 10^10 dm^3mol^−1s^−1. […] For further confirmation, measurements were made at, in addition to 297 K, temperatures 303 and 308 K. Experimental data points were fitted and analyzed using Equation (1).
Both for the complexes with BSA and with GGF, the binding constant (Kb) and the binding stoichiometry (n) were calculated. […] The values of Kb and n were calculated from the slope and the intercept of the log [(F0 − F)/F] versus log [Q] plot (Figure 2).
The forces involved in the interaction can be identified by measurement at different temperatures and then by thermodynamic analysis. The signs of the thermodynamic parameters identify the type of interactions. The enthalpy change (ΔH°), the entropic change (ΔS°), and the free energy change (ΔG°) were calculated from Equations (4) and (5):(4) […]=−ΔH^°/RT+ΔS^°/R (5) ΔG^°=ΔH^°−TΔS^°=−RTlnKb where Kb is the binding constant and R is the universal gas constant. To determine the thermodynamic parameters, the van’t Hoff plot was first conducted, i.e., the temperature dependence of the binding constant, according to Equation (4). The Kb values at the three temperatures were fitted by the linear regression method. The values of ΔH and ΔS were calculated from the slope and intercept at the fitted line. Next, the free energy change (ΔG°) was obtained from Equation (5).

With “Lys-Dab-Dab-Gly-Orn-Pro-His-Lys-Arg-Lys-Dbt [L1]”, the “Stern–Volmer constant Ksv” value (297 K, inner-filter corrected) is listed as 4.24 ± 0.06 × 10^4 dm^3mol^−1. For the same substance, where the note is “297 K”, the “binding constant Kb” value was 10.10 ± 0.24 × 10^4 dm^3mol^−1, the logKb worked out at 5.00 ± 0.12 and the “quenching rate constant kq” value is listed as 4.24 ± 0.06 × 10^12 dm^3mol^−1s^−1. For the setting “303 K”, the “Stern–Volmer constant Ksv” value is 4.03 ± 0.13 × 10^4 dm^3mol^−1, the “binding constant Kb” value is 6.17 ± 0.25 × 10^4 dm^3mol^−1, the logKb turned out to be 4.79 ± 0.20 and the “quenching rate constant kq” value is listed as 4.03 ± 0.13 × 10^12 dm^3mol^−1s^−1. In addition, for the setting “308 K”, the “Stern–Volmer constant Ksv” value is reported as 3.60 ± 0.06 × 10^4 dm^3mol^−1, the “binding constant Kb” value was 2.51 ± 0.12 × 10^4 dm^3mol^−1, the logKb was 4.39 ± 0.21 and the “quenching rate constant kq” value was 3.60 ± 0.06 × 10^12 dm^3mol^−1s^−1.
